Series [1] can be described thus: saturated solubility of corticosteroids in liquid silicones and in propylene glycol:glycerol(:water) mixtures. It is filed as physicochemical. The conditions noted are these: for saturated solubility in propylene glycol:glycerol mixtures: as glycerol is added to propylene glycol, FIG. 8; for saturated solubility in propylene glycol:glycerol:water mixtures: as water is added to propylene glycol:glycerol 70:30, FIG. 9; for saturated solubility in liquid silicones: range of liquid silicones including caprylyl methicone, FIG. 1. As for the experimental part: Similarly, active solubility may be reduced in the non-volatile residual phase. […] As glycerol is added to propylene glycol the solubility of FP and MF decreases. […] As water is added to propylene glycol:glycerol 70:30 the solubility of FP and MF decreases. Water may be present in certain embodiments of the formulation or may be present in the residual phase due to uptake of transepidermal water. Although water is a highly volatile solvent, humectant glycols retain water depending upon ambient conditions.

The format of series [2] is physicochemical. The text has this: As described previously, diffusion coefficient-enhancing excipients (DC enhancers) for use in the present invention commonly comprise alcohol, acid or ester derivatives of C8-C22 hydrocarbons.
In the acid and alcohol series, FIG. 2, as carbon chain length increases, solubility in caprylyl methicone decreases to less than 0.1% w/w at C18, such that these higher carbon chain lengths may be considered unsuitable for use as the DC enhancer in the formulation of the present invention owing to low solubility-dissolution constraints. Conversely, lower carbon chain length acids and alcohols such as C8 and C10 alcohols and C8 and C10 acids may be considered to be far too soluble in hydrocarbyl methyl siloxanes including caprylyl methicone, such that their performance as diffusion coefficient-enhancing excipients would be adversely affected. Similarly, long chain (for instance C14-C16) isopropyl esters are far too soluble in hydrocarbyl methyl siloxanes such as caprylyl methicone to allow performance as DC enhancers. For both of these classes of DC enhancer, up to 50% DC enhancer would be required to be at or near saturation in the non-volatile residual phase. In contrast, the C12-C14 acids and C12 alcohol have appropriate solubility in caprylyl methicone.
Conversely, from C16-C22 solubility is too low to allow adequate performance. […]

Data on three molecules can be found in patent US10828250B2, “Topical formulation” (LIMEWAY PHARMA DESIGN LIMITED, priority 2015, dated 2020).

With `C[C@@H]1C[C@H]2[C@@H]3CCC4=CC(=O)C=C[C@]4(C)[C@@]3(Cl)[C@@H](O)C[C@]2(C)[C@@]1(OC(=O)c1ccco1)C(=O)CCl` [mometasone furoate], in series [1], the “saturated solubility in propylene glycol:glycerol mixtures” value is recorded as “decreases”, the “saturated solubility in propylene glycol:glycerol:water mixtures” value is reported as “decreases” and the “saturated solubility in liquid silicones” value is “appropriately low”.
As for `CCC(=O)O[C@]1(C(=O)SCF)[C@H](C)C[C@H]2[C@@H]3C[C@H](F)C4=CC(=O)C=C[C@]4(C)[C@@]3(F)[C@@H](O)C[C@@]21C` [fluticasone propionate], in series [1], the “saturated solubility in propylene glycol:glycerol mixtures” value is “decreases”, the “saturated solubility in propylene glycol:glycerol:water mixtures” value is “decreases” and the “saturated solubility in liquid silicones” value is listed as “appropriately low”.
As for myrystyl alcohol [C14 alcohol], in series [2], the “amount to saturate caprylyl methicone (solubility)” value came out at 2.30% and the “amount to saturate propylene glycol (solubility)” value was determined as 2.44%.
